These results are taken from patent US9511073B2, “Aromatic amides and uses thereof” (TAXIS Pharmaceuticals, Inc., priority 2011, dated 2016).

The structures appear in SMILES notation. ≈ marks a conversion by molar mass, not a printed value. Read-outs that look alike come from different tables or passages of the source.

Series [1] concerns Staphylococcus aureus (Isolate ID ATCC 29213). The experiment in a line: Bacterial assay: MIC by broth microdilution or agar dilution (CLSI), S. aureus ATCC 29213. In kind it is cell-based. Conditions: Staphylococcus aureus. A digest of the protocol:
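Activity is binned (A ≤0.25 μg/mL; B >0.25–1.0; C >1.0–16; D >16 μg/mL) from MICs determined per CLSI by broth microdilution or agar dilution, on S. aureus ATCC 29213 plus an FtsZ-G196A mutant strain.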
A general note: Broth dilution looks for growth in wells or tubes with falling amounts of substance.

Series [2] concerns FtsZ-G196A Staphylococcus aureus (Isolate ID GG/190723/sa/1.2). The experiment in a line: Bacterial assay: MIC, FtsZ G196A mutant strain. In kind it is cell-based. Conditions: read-out: MIC (μg/mL) G196A mutant strain. On the procedure:
(§1) Compounds are tested for antimicrobial activity by susceptibility testing in liquid or on solid media. Minimum inhibitory concentrations (MICs) for compounds against each strain are determined by the broth microdilution or agar dilution method according to the guidelines of the Clinical Laboratories and Standards Institute, formerly the National Committee for Clinical Laboratory Standards (Clinical Laboratories and Standards Institute. Methods for Dilution Antimicrobial Susceptibility Tests for Bacteria That Grow Aerobically; Approved Standard—Seventh Edition. Document M7-A7. CLSI, Wayne, Pa., 2006; Clinical Laboratories and Standards Institute). The bacterial strains tested include S. aureus (Staphylococcus aureus (Isolate ID ATCC 29213)) and an FtsZ mutant of this isolate (FtsZ-G196A Staphylococcus aureus (Isolate ID GG/190723/sa/1.2)). Compound MICs were determined to be in the following activity ranges “A” activity≦0.25 μg/mL; “B” activity>0.25 μg/mL-1.0 μg/mL; “C” activity>1.0 μg/mL-16 μg/mL; “D” activity>16 μg/mL and ND=not determined. The bracketed entries indicate entantiomer(s) and their activity.
The comparative activity of selected compounds having a bromo-substituted oxazole against their corresponding non-brominated analogues is shown in Table 4.

Series [3] can be described thus: Pharmacokinetic assay: plasma concentration by LC/MS/MS after single intravenous or peroral dose of 3 mg/kg. The format is in vivo. Conditions: 3 mg/kg IV dosing in mice. On the procedure:
The pharmacokinetic profiles of selected comparator compounds A-N in Table 6 and compounds of the invention were determined by measuring the compound concentration in plasma by LC/MS/MS following a single intravenous or peroral administration of the compounds at a dose of 3 mg/kg. The concentrations described are the mean plasma concentrations at each time point from three animals. Intravenous dose formulation was administered as a single bolus dose through the tail vein. Oral dose formulation was administered to animals by an oral gavage needle. In both cases the dose volume was 5.0 mL/kg. Blood was collected from anesthetized mice through a capillary guided into the retro-orbital plexus. The collected blood was centrifuged to obtain plasma and the compounds extracted into methanol prior to determining the compound concentration by LC/MS/MS. The results are shown graphically in FIG. 1 and for the AUC and CL parameters in Table 6.

Series [4] relates to S. aureus ATCC BAA-44 (MDRSA). The experiment in a line: microbe, parasite or virus in culture. The format is cell-based. Conditions: Staphylococcus aureus, ATCCBAA44. The protocol:
as §1
(§2) Selected compounds were also tested against a panel of target strains and their MICs are shown in Table 3 against the gold standard Linezolid. […] The activity of the compounds observed against S. aureus was also shown to be maintained within a narrow range across the staphylococcal panel tested.

Series [5] concerns S. aureus ATCC 43300 (MRSA). The experiment in a line: microbe, parasite or virus in culture. The format is cell-based. The following applies: Staphylococcus aureus. The protocol: as §1, §2
The subject of series [6] is S. aureus ATCC 19636 (Smith). The experiment in a line: MIC, staphylococcal panel. The following applies: Staphylococcus aureus, ATCC19636. The format is cell-based. On the procedure: as §1, §2
For series [7], the system named is S. haemolyticus ATCC 29970. The experiment in a line: MIC, staphylococcal panel. In kind it is cell-based. The following applies: Staphylococcus haemolyticus, ATCC29970. The protocol:
as §1, §2

Series [8] has as its system S. lugdunensis ATCC 43809. The experiment in a line: MIC, staphylococcal panel. In kind it is cell-based. The following applies: Staphylococcus lugdunensis, ATCC43809. The protocol: as §1, §2
For series [9], the system named is S. hominis ATCC 27844. The experiment in a line: MIC, staphylococcal panel. The format is cell-based. The following applies: Staphylococcus hominis, ATCC27844. The protocol: as §1, §2
Series [10] relates to S. epidermidis ATCC 12228. The experiment in a line: MIC, staphylococcal panel. In kind it is cell-based. Conditions: Staphylococcus epidermidis, ATCC12228. On the procedure: as §1, §2
Series [11] has as its system S. saprophyticus ATCC 43809. The experiment in a line: MIC, staphylococcal panel. The format is cell-based. Conditions: Staphylococcus saprophyticus, ATCC43809. The protocol: as §1, §2
Series [12] has as its system S. warneri ATCC 49454. The experiment in a line: MIC, staphylococcal panel. In kind it is cell-based. The following applies: Staphylococcus warneri, ATCC49454. On the procedure:
as §1, §2

The mark [13] stands for this setting: ATCC29213, read-out: MIC (μg/mL) S. aureus (ATCC29213), Table 5, racemate and enantiomers.
The mark [14] stands for this setting: ATCC29213, read-out: S. aureus MIC (μg/mL) Activity Range, S. aureus (ATCC29213).
Where [15] appears, read: ATCC29213, Staphylococcus aureus ATCC 29213, Table 3 panel.

One may read the AUC as the area under the concentration-time curve, a measure of exposure. `NC(=O)c1c(F)ccc(OC(CO)c2nc(-c3ccc(C(F)(F)F)cc3)c(Br)o2)c1F` (racemic) [Compound 38, 3-(1-(5-bromo-4-(4-(trifluoromethyl)phenyl)oxazol-2-yl)-2-hydroxyethoxy)-2,6-difluorobenzamide]: the MIC in series [1] (setting [13]) is 0.25 µg/mL (≈ 0.493 µM); in [1] (setting [14]) it was less than 0.25 µg/mL; in series [2], 4 µg/mL (≈ 7.89 µM). In addition, in [3], the “AUC” value was 6700 ng·h/mL. In addition, the clearance in series [3] (mouse, plasma) amounted to 7 mL/min/kg.
As for `NC(=O)c1c(F)ccc(OC(CO)c2nc(-c3ccc(F)cc3F)c(Br)o2)c1F` (racemic) [Compound 233, 3-(1-(5-bromo-4-(2,4-difluorophenyl)oxazol-2-yl)-2-hydroxyethoxy)-2,6-difluorobenzamide], the MIC in series [1] (setting [15]) was 0.25 µg/mL (≈ 0.526 µM); in series [1] (setting [13]), 0.25 µg/mL (≈ 0.526 µM); in series [1] (setting [14]), less than 0.25 µg/mL; in series [4], 0.25 µg/mL (≈ 0.526 µM); in series [5] it was 0.5 µg/mL (≈ 1.05 µM); in [2], 8 µg/mL (≈ 16.8 µM). Also, the MIC in series [6] came out at 0.25 µg/mL (≈ 0.526 µM); in series [7] it was 0.5 µg/mL (≈ 1.05 µM); in [8] it was 0.5 µg/mL (≈ 1.05 µM); in series [9], 0.5 µg/mL (≈ 1.05 µM); in [10], 0.5 µg/mL (≈ 1.05 µM); in series [11], 0.5 µg/mL (≈ 1.05 µM). In series [12], this molecule registered an MIC of 0.5 µg/mL (≈ 1.05 µM). This molecule showed a clearance in series [3] (mouse, plasma) of 18 mL/min/kg. Besides, the AUC in series [3] (mouse, plasma, read-out: AUC) stood at 2300 ng·h/mL.
In the case of `NC(=O)c1c(F)ccc(O[C@@H](CO)c2nc(-c3ccc(C(F)(F)F)cc3)c(Br)o2)c1F` (single isomer, unassigned) [Compound 38A], the MIC in [1] (setting [13]) was 16 µg/mL (≈ 31.5 µM); in series [1] (setting [14]) it was 1 to 16 µg/mL (≈ 1.97 to 31.5 µM); in series [2], 64 µg/mL (≈ 126 µM). In series [3] (mouse, plasma), this molecule displayed a clearance of 6 mL/min/kg. Besides, the AUC in [3] (mouse, plasma, read-out: AUC) was found to be 7800 ng·h/mL.
Turning to `NC(=O)c1c(F)ccc(O[C@H](CO)c2nc(-c3ccc(C(F)(F)F)cc3)c(Br)o2)c1F` (single isomer, unassigned) [Compound 38B], the MIC is 0.125 µg/mL (≈ 0.246 µM) in series [1] (setting [15]); 0.125 µg/mL (≈ 0.246 µM) in series [1] (setting [13]); less than 0.25 µg/mL in series [1] (setting [14]); 0.125 µg/mL (≈ 0.246 µM) in series [4]; 0.125 µg/mL (≈ 0.246 µM) in [5]; 2 µg/mL (≈ 3.94 µM) in series [2]. In addition, the MIC in [6] came to 0.125 µg/mL (≈ 0.246 µM); in series [7], 0.125 µg/mL (≈ 0.246 µM); in [8], 0.25 µg/mL (≈ 0.493 µM); in series [9] it was 0.125 µg/mL (≈ 0.246 µM); in series [10], 0.125 µg/mL (≈ 0.246 µM); in series [11] it was 0.06 µg/mL (≈ 0.118 µM). In series [12], this molecule gave an MIC of 0.25 µg/mL (≈ 0.493 µM). Moreover, in [3] (mouse, plasma), the clearance was found to be 12 mL/min/kg. For the same molecule, the AUC in series [3] (mouse, plasma, read-out: AUC) was found to be 4000 ng·h/mL.
Turning to `CC(=O)NC[C@H]1CN(c2ccc(N3CCOCC3)c(F)c2)C(=O)O1` [Linezolid, reference compound], the MIC in series [1] (ATCC29213, Staphylococcus aureus ATCC 29213, Table 3 panel, read-out: MIC) is 2 µg/mL (≈ 5.93 µM); in series [4] (S. aureus ATCC BAA-44 (MDRSA), read-out: MIC) it was 1 µg/mL (≈ 2.96 µM); in [5] (S. aureus ATCC 43300 (MRSA), read-out: MIC), 2 µg/mL (≈ 5.93 µM); in [6] (S. aureus ATCC 19636 (Smith), read-out: MIC), 2 µg/mL (≈ 5.93 µM); in series [7] (S. haemolyticus ATCC 29970, read-out: MIC), 1 µg/mL (≈ 2.96 µM); in series [8] (S. lugdunensis ATCC 43809, read-out: MIC) it was 1 µg/mL (≈ 2.96 µM). Further, the MIC amounted to 1 µg/mL (≈ 2.96 µM) in [9] (S. hominis ATCC 27844, read-out: MIC); 1 µg/mL (≈ 2.96 µM) in series [10] (S. epidermidis ATCC 12228, read-out: MIC); 2 µg/mL (≈ 5.93 µM) in series [11] (S. saprophyticus ATCC 43809, read-out: MIC); 2 µg/mL (≈ 5.93 µM) in [12] (S. warneri ATCC 49454, read-out: MIC).
